Measurements as given in patent publication US5002963A, “3-indolepyruvic acid derivatives and pharmaceutical use thereof” (priority 1987, dated 1991).
Counter-ions that a name gives are not always drawn.

Tests used:
[1] = Water solubility; format: physicochemical
[2] = system: audiogenic convulsions in DBA2 mice; test: Test 6: audiogenic convulsions in DBA2 mice; format: in vivo; details: for Animals with convulsions, % / Animals with convulsions: one hour before the test; for Animals with convulsions: number/total; for protective action against tonic convulsions induced by sound stimulations (in words): DBA2 mice
Procedure: To evaluate whether an increase in kynurenic acid in the brain after administration of IPA could have a protective action on neurons stressed by excitatory aminoacids, the experimental pattern of inducing convulsions in a particular strain of mice (DBA2) by selected sound stimulations was followed. […] The substances were injected intravenously one hour before the test. Then the number of animals showing tonic convulsions was measured.

[3] = system: Brain homogenate; test: Test 2: transformation into kynurenic acid in tissue homogenates (brain); format: in vitro ADME, rats; details: for Amount of kynurenic acid formed: brain homogenate
Procedure: (§1) Male rats fasting for 16 hours were sacrificed and their organs were taken and homogenized in 5 volumes of 0,05 M phosphate buffer pH 7,4+0,14 M KCl.
(§2) Small amounts of homogenate (0,8 ml) were additioned with various amounts of 3-indolepyruvic acid or the derivatives thereof, dissolved into a buffer solution, and with a system for the production of free radicals, consisting of ascorbic acid (final 10^-5 M), FeCl3 (final 10^-6 M) and H2 O2 (final 10^-4 M). It was stirred at 37° C., then the reaction was blocked.

[4] = system: kynurenic acid; test: Test 3: effect on the content of kynurenic acid after administration of IPA in rat; format: in vivo; details: for increase in the levels of kynurenic acid in the tissues (in words): rat, in vivo
Source text: (§3) For the measurement of such levels after administration of 3-indolepyruvic acid or a derivative thereof, a system was set up based on ultraviolet detection of the compounds separated by high pressure liquid chromatography.
(§4) Briefly, after sacrific of the animal, some of the principal organs were taken and homogenized with alkaline ethanol. Proteins and cell remains were removed by centrifugation, whilst the over natant was adsorbed on Bio-Rad AG 1×8 resin. After washing with water it was eluted with formic acid. It was then passed on Bio-Rad AG 50W-×8 resin, eluted with 3% ammonia, dried and retaken with a small amount of water.
(§5) The sample thus obtained was injected into a Waters apparatus for high pressure liquid chromatography, using a C18 10 micron column and eluting with 0,02 m citric acid containing 10% of methanol. The kynurenic acid levels were extrapolated by the calibration line of the acid and reading at 234 nm.
Male rats were treated with saline solution (controls) or with various doses of IPA, which was injected 3 hours before sacrifice. Each lot comprised 10 animals.
The results are reported in picomoles/g of tissue (or ml of blood)±standard error.

[5] = system: tryptophan and kynurenic acid in the brain of rats; details: rat, in vivo; for KYN/TRP × 10^3: ip, 250 mg/kg
Source text: as §3, §4, §5
Male rats were treated with saline solution (controls), IPA or tryptophan i.p. one hour before sacrifice. Each lot was of six animals.
The reported values are in picomoles/g for kynurenic acid and picomoles/mg for tryptophan.

[6] = system: Kidney homogenate; test: Test 2: transformation into kynurenic acid in tissue homogenates (kidney); format: in vitro ADME, rats
Procedure: as §1, §2

[7] = system: excitatory aminoacids; details: cited from earlier work; for agonism of excitatory aminoacids (in words): central nervous system of mammals
[8] = Stability; format: physicochemical
[9] = system: kynurenic acid; test: Test 5: time course of the kynurenic acid levels after administration of IPA; format: in vivo, rats; details: 250 mg/Kg i.p.; for kynurenic acid level, Brain / kynurenic acid level, Heart / kynurenic acid level, Kidney / kynurenic acid level, Liver: ± standard error
Source text: as §3, §4, §5
Male rats, in lots of five animals each, were treated i.p. with 250 mg/Kg IPA and were sacrificed at different times, evaluating the levels of kynurenic acid present in various organs.
The results are reported in picomoles/g±standard error.

[10] = system: NMDA induced convulsions; test: Test 7: NMDA induced convulsions; format: in vivo, Mice of Albino Swiss strain
Procedure: Mice of Albino Swiss strain were treated with saline (controls) or with IPA (1 g/Kg i.p.) one hour before receiving a toxic dose of NMDA (154 mg/Kg i.p.).

[11] = system: kynurenic acid; test: Test 3: effect on the content of kynurenic acid after administration of IPA in rat; format: in vivo; details: 3 hours, ± standard error
[12] = Test 1: transformation of 3-indolepyruvic acid into kynurenic acid in vitro, within a non enzymatic system; format: physicochemical; details: from 2 mg, HCl 0,1 M, O2 and light
Procedure: When 3-indole pyruvic acid or a derivative thereof of formula 1 is incubated in a slightly acid solution (HCl 0,1 M), in the presence of oxidising agents (O2) and light, in time the formation of small amounts of kynurenic acid is observed. Particularly starting from 2 mg 3-indolepyruvic acid, 0,5 micrograms are obtained after 2 hours and 0,7 micrograms after 4 hours.

[13] = system: NMDA induced convulsions; details: cited from earlier work
[14] = system: audiogenic convulsions in DBA2 mice; details: known effect of kynurenic acid; cited from earlier work
[15] = 100 mg/Kg i.p., 3 hours, ± standard error
[16] = 250 mg.Kg i.p., 3 hours, ± standard error
[17] = 500 mg.Kg i.p., 3 hours, ± standard error
[18] = 1 g/Kg i.p. one hour before NMDA 154 mg/Kg i.p., number/total

## O=C(O)C(=O)Cc1c[nH]c2ccccc12 [Mg^++ IPA salt, Mg salt of 3-indolepyruvic acid]
[1]
  solubility in water (in words): water soluble
[2]; intravenously, dose not given
  Animals with convulsions, %: 29%
  Animals with convulsions: 4/14

## COC(=O)C(Cc1ccccc1)NC(=O)C(=O)Cc1c[nH]c2ccccc12 (stereo not shown) [IPE-PHE-Ome, 3indolepyruvic acid phenylalanine methylester]
[3]; amount not given, 30'
  Amount of kynurenic acid formed: 75 ng
[3]; amount not given, 60'
  Amount of kynurenic acid formed: 82 ng
[3]; amount not given, 120'
  Amount of kynurenic acid formed: 92 ng

## N[C@@H](Cc1c[nH]c2ccccc12)C(=O)O [Tryptophan, tryptophan, reference compound]
[4]
  increase in the levels of kynurenic acid in the tissues (in words): does not produce such an effect
[5]
  KYN/TRP × 10^3: 0.16
[6]; final 1.6 mg, 30'
  Amount of kynurenic acid formed: 55 ng
[6]; final 1.6 mg, 60'
  Amount of kynurenic acid formed: 82 ng
[6]; final 1.6 mg, 120'
  Amount of kynurenic acid formed: 111 ng
[3]
  transformation into kynurenic acid in brain homogenate (in words): never transformed into kynurenic acid
[3]; 1.6 mg, 30'
  Amount of kynurenic acid formed: 0 ng
[3]; 1.6 mg, 60'
  Amount of kynurenic acid formed: 0 ng
[3]; 1.6 mg, 120'
  Amount of kynurenic acid formed: 0 ng
[2]; 200 mg/Kg intravenously
  Animals with convulsions, %: 80%
  Animals with convulsions: 8/10
[2]
  protective action against tonic convulsions induced by sound stimulations (in words): no effective action

## Nc1ccccc1C(=O)CC(N)C(=O)O (stereo not shown) [kynurenine]
[7]
  agonism of excitatory aminoacids (in words): powerful agonists of excitatory aminoacids

## O=C(O)C(=O)Cc1c[nH]c2ccccc12 [3-indolepyruvic acid]
[4]; [15]
  kynurenic acid content, Blood: 62 ± 3 picomoles/ml of blood
  kynurenic acid content, Brain: 24 ± 1 picomoles/g of tissue
  kynurenic acid content, Liver: 240 ± 20 picomoles/g of tissue
[4]; [16]
  kynurenic acid content, Blood: 164 ± 10 picomoles/ml of blood
  kynurenic acid content, Brain: 32 ± 3 picomoles/g of tissue
[4]; [17]
  kynurenic acid content, Blood: 442 ± 20 picomoles/ml of blood
  kynurenic acid content, Brain: 110 ± 10 picomoles/g of tissue
[4]; 500 mg/Kg
  kynurenic acid in brain, times higher than the controls: six
[4]
  increase in the levels of kynurenic acid in the tissues (in words): dose-dependent
[8]
  stability (in words): highly instable
[9]
  kynurenic acid levels over time in the organs (in words): high increase of kynurenic acid in all the organs under test (maximum in kidney). The levels remain high even after 4 hours from administration
[9]; 1 hour
  kynurenic acid level, Brain: 39 ± 4 picomoles/g
  kynurenic acid level, Heart: 181 ± 18 picomoles/g
  kynurenic acid level, Kidney: 2593 ± 250 picomoles/g
  kynurenic acid level, Liver: 827 ± 50 picomoles/g
[9]; 2 hours
  kynurenic acid level, Brain: 32 ± 3 picomoles/g
  kynurenic acid level, Heart: 177 ± 20 picomoles/g
  kynurenic acid level, Kidney: 2395 ± 200 picomoles/g
  kynurenic acid level, Liver: 464 ± 40 picomoles/g
[9]; 3 hours
  kynurenic acid level, Brain: 38 ± 4 picomoles/g
  kynurenic acid level, Heart: 104 ± 12 picomoles/g
  kynurenic acid level, Kidney: 1480 ± 150 picomoles/g
  kynurenic acid level, Liver: 235 ± 5 picomoles/g
[9]; 4 hours
  kynurenic acid level, Brain: 28 ± 3 picomoles/g
  kynurenic acid level, Heart: 100 ± 11 picomoles/g
  kynurenic acid level, Kidney: 1200 ± 150 picomoles/g
  kynurenic acid level, Liver: 122 ± 10 picomoles/g
[5]
  precursor of cerebral kynurenic acid (in words): selective precursor of cerebral kynurenic acid
  KYN/TRP × 10^3: 0.40
[10]; [18]
  Deaths: 3/9
  Tonic convulsions: 5/9
[10]; mouse, in vivo
  protection against convulsions and death induced by NMDA (in words): able to protect mice against both convulsions and death induced by NMDA
[11]; 100 mg/Kg per os
  kynurenic acid content, Blood: 87 ± 8 picomoles/ml of blood
  kynurenic acid content, Brain: 28 ± 2 picomoles/g of tissue
  kynurenic acid content, Liver: 275 ± 25 picomoles/g of tissue
[11]; 250 mg.Kg i.p.
  kynurenic acid content, Liver: 547 ± 35 picomoles/g of tissue
[11]; 250 mg/Kg per os
  kynurenic acid content, Blood: 120 ± 12 picomoles/ml of blood
  kynurenic acid content, Brain: 38 ± 3 picomoles/g of tissue
  kynurenic acid content, Liver: 485 ± 40 picomoles/g of tissue
[11]; 500 mg.Kg i.p.
  kynurenic acid content, Liver: 2860 ± 300 picomoles/g of tissue
[6]; final 0.8 mg, 30'
  Amount of kynurenic acid formed: 160 ng
[6]; final 0.8 mg, 60'
  Amount of kynurenic acid formed: 190 ng
[6]; final 0.8 mg, 120'
  Amount of kynurenic acid formed: 208 ng
[6]; final 1.6 mg, 30'
  Amount of kynurenic acid formed: 232 ng
[6]; final 1.6 mg, 60'
  Amount of kynurenic acid formed: 280 ng
[6]; final 1.6 mg, 120'
  Amount of kynurenic acid formed: 315 ng
[6]; final 4 mg, 30'
  Amount of kynurenic acid formed: 185 ng
[6]; final 4 mg, 60'
  Amount of kynurenic acid formed: 221 ng
[6]; final 4 mg, 120'
  Amount of kynurenic acid formed: 270 ng
[3]
  transformation into kynurenic acid in brain homogenate (in words): able to transform into kynurenic acid in the brain
[3]; 1.6 mg, 30'
  Amount of kynurenic acid formed: 165 ng
[3]; 1.6 mg, 60'
  Amount of kynurenic acid formed: 280 ng
[3]; 1.6 mg, 120'
  Amount of kynurenic acid formed: 380 ng
[2]; 200 mg/Kg intravenously
  Animals with convulsions, %: 33%
  Animals with convulsions: 4/12
[2]
  protective action against tonic convulsions induced by sound stimulations (in words): good protective action
[12]; after 2 hours
  kynurenic acid obtained: 0,5 micrograms
[12]; after 4 hours
  kynurenic acid obtained: 0,7 micrograms

## O=C(O)c1cc(=O)c2ccccc2[nH]1 [kynurenic acid]
[13]; well known effect of kynurenic acid
  protection against the toxicity due to NMDA (in words): protects against the toxicity due to NMDA
[7]
  inhibition of the excitatory effects of quinolinic acid, N-methyl-D-aspartate and other aminoacids (in words): powerful inhibitor
[14]
  protection against audiogenic convulsions (in words): protective against convulsions

## CN[C@H](CC(=O)O)C(=O)O [NMDA, N-methyl-D-aspartic acid]
[13]; activation of receptors of the excitatory aminoacids
  neurotoxic effect (in words): powerful neurotoxic effect

## COC(=O)C(Cc1ccc(O)cc1)NC(=O)C(=O)Cc1c[nH]c2ccccc12 (stereo not shown) [IPE-TYR-Ome, 3indolepyruvic acid tyrosine methylester]
[3]; amount not given, 30'
  Amount of kynurenic acid formed: 44 ng
[3]; amount not given, 60'
  Amount of kynurenic acid formed: 48 ng
[3]; amount not given, 120'
  Amount of kynurenic acid formed: 79 ng

## O=C(O)c1cccnc1C(=O)O [quinolinic acid]
[7]
  agonism of excitatory aminoacids (in words): powerful agonists of excitatory aminoacids

## COC(=O)C(=O)Cc1c[nH]c2ccccc12 [IPA-Methylester, 3-indolepyruvic acid methyl ester]
[3]; amount not given, 30'
  Amount of kynurenic acid formed: 48 ng
[3]; amount not given, 60'
  Amount of kynurenic acid formed: 65 ng
[3]; amount not given, 120'
  Amount of kynurenic acid formed: 83 ng
